We go through 1 molecule from patent US10238614B2, “Uses of 6-aminohexanoic acid to manage bleeding conditions” (EMORY UNIVERSITY, priority 2013, dated 2019).

In series [1] the test system is patients with thrombocytopenic hemorrhage / severely thrombocytopenic patients with hematological malignancies. The conditions noted are these: cited from earlier work.
For series [2], the system named is thrombocytopenic patients with hematological malignancies. Nature of the series: Retrospective study of prophylactic oral EACA in outpatients with chronic transfusion-dependent thrombocytopenia. The series is classed as in vivo, human. An excerpt:
Patients were managed in the outpatient setting despite their severe thrombocytopenia and received EACA as a substitution for prophylactic, threshold directed platelet transfusion.
Patients with chronic transfusion dependent thrombocytopenia who received prophylactic EACA in the outpatient setting were identified through a computerized database search. After initiation of EACA, prophylactic threshold-driven platelet transfusion was discontinued and patients received only therapeutic platelet transfusion in case of bleeding, except when admitted to the inpatient ward. In the inpatient ward, prophylactic platelets were routinely infused when platelets were <10×10^9/L. The number of platelets transfused in the hospital in the absence of bleeding was censored. Patient demographics, diagnosis, treatment, platelet counts, duration of thrombocytopenia, transfusion history, bleeding and outcomes were captured onto study-specific case report forms. Bleeding was captured regardless of patient's location (out-patient or wards) and retrospectively scored based on the ITP WHO classification: grade 1=petechial bleed, grade 2=clinically mild blood loss, grade 3=gross blood loss requiring transfusion, and grade 4=retinal, cerebral, or debilitating blood loss. Statistics were descriptive.
Patients were monitored in the outpatient clinic, with a CBC obtained at least once a week.

Setting [3] is: ITP WHO bleeding classification grade, median (range).
[4] abbreviates: severe and refractory thrombocytopenic patients not receiving prophylactic platelet transfusion.

Consider `NCCCCCC(=O)O` [EACA, 6-aminohexanoic acid], for which the “effect on transfusion requirements” value in series [1] (patients with thrombocytopenic hemorrhage, Kalmadi et al., Cancer 2006) is “reduces transfusion requirements”. For the same molecule, the effect on bleeding entry in series [1] (severely thrombocytopenic patients with hematological malignancies, Antun et al., Cancer 2013) is given as “prevents bleeding”. The tolerability result in series [2] (1 gram orally twice daily, median 47 days) was “overall well tolerated”. The “patients who discontinued EACA due to platelet recovery” value in series [2] (18 of 44 patients) came out at 41%. Moreover, in series [2] (44 patients), the “discontinuation due to intolerance” value is listed as “no patients discontinued EACA due to intolerance” and the venous thromboembolic event entry is given as “No patient experienced a venous thromboembolic event”. Moreover, in series [2] (44 patients, EACA 1 gram orally twice daily, no prophylactic platelet transfusions, 7/44), the “patients who received platelet transfusions while on EACA” value was 16%. Further, in series [2] (setting [3]), the “median bleeding score for the 19 minor bleeding events” value is 1 (1-2) and the “median score for the 10 bleeding episodes treated with transfusion” value was 2 (2-4). For the same molecule, the “patients with minor mucocutaneous bleeding that resolved spontaneously and did not require platelet transfusions” value in series [2] (eleven of 44 patients) came to 25%. Also, the “patients with grade 3 bleeding” value in series [2] (hematochezia from a pre-existing rectal ulcer) is on record as 1 patient. Also, in series [2] (in 7/44 patients while on EACA), the “bleeding episodes treated with platelet transfusions” value turned out to be 10. Moreover, the “episodes of minor mucocutaneous bleeding that resolved spontaneously” value in series [2] (in eleven patients, epistaxis, bruises, oral, vaginal) is 19 episodes. Also, the “grade 2 mucocutaneous bleeds requiring transfusion” value in series [2] (in the other 5 patients: hemorrhoid, epistaxis, oral, bladder and vaginal) amounted to 8. In series [2] (in the setting of a trauma and from a pre-existing condition), the “grade 3-4 bleedings” value is recorded as “Two”. The major spontaneous bleeds entry in series [2] (median platelet counts 8×10^9/L, no prophylactic platelet transfusions, median 47 days, up to 209 days) was “no major spontaneous bleeds were observed”. For the same molecule, the “platelet refractory patients with bleeding episodes” value in series [2] (of the 10 platelet refractory patients, mucocutaneous (3 grade 1, 5 grade 2 and 1 grade 3)) turned out to be 4. In addition, the “patients who discontinued EACA due to the onset of hematuria” value in series [2] (one of 44 patients) is listed as 2%. Besides, in series [2] (setting [4]), the overall safety result is “safe” and the “risk of major spontaneous bleeding” value is listed as “low risk of major spontaneous bleeding”. In addition, the “patient-reported effect on petechiae and subcutaneous bleeds” value in series [2] (shortly after initiation of EACA) is “rapid disappearance of petechiae and resolution of subcutaneous bleeds”. In addition, the “median platelet transfusions in transfused patients” value in series [2] (summary statement, 16% of patients transfused) is reported as 4 units. Besides, the “median number of platelets transfusions received to treat bleeding episodes” value in series [2] (the 7 transfused patients, median (range)) is 4 (range, 1-8). For the same molecule, the “patients with grade 4 bleeding” value in series [2] (traumatic intracranial hemorrhage secondary to motor vehicle accident) came out at 1 patient.
